This note sets out measurements from article PMC4838859, “Genetically encoded photocrosslinkers locate the high-affinity binding site of antidepressant drugs in the human serotonin transporter” (Nature Communications, 2016).

Assay [1] relates to hSERT S2-binding site mutants (W103azF, Y107azF, W182azF, Y487azF, K490azF). In words: Ultraviolet-induced photocrosslinking of [3H]labelled drug in HEK293T cells. As to conditions: 100 nM [3H]drug, 2 h 4 °C, UV 15 min; five S2 azF mutants.
Assay [2] concerns the target T1, hSERT Y95azF (Homo sapiens, UniProt P31645). As to conditions: 100 nM [3H]drug, 2 h 4 °C, UV 15 min, 50–100 kDa segment.
The target in assay [3] is T2, WT hSERT (Homo sapiens, UniProt P31645). Put plainly: Saturation binding of [3H]vortioxetine / [3H]imipramine to HEK293T membranes expressing hSERT. Also on record: expressed in transfected cells; host or cells: HEK293T. As to conditions: [3H]ligand saturation binding.
T2 sequence (P31645 whole entry): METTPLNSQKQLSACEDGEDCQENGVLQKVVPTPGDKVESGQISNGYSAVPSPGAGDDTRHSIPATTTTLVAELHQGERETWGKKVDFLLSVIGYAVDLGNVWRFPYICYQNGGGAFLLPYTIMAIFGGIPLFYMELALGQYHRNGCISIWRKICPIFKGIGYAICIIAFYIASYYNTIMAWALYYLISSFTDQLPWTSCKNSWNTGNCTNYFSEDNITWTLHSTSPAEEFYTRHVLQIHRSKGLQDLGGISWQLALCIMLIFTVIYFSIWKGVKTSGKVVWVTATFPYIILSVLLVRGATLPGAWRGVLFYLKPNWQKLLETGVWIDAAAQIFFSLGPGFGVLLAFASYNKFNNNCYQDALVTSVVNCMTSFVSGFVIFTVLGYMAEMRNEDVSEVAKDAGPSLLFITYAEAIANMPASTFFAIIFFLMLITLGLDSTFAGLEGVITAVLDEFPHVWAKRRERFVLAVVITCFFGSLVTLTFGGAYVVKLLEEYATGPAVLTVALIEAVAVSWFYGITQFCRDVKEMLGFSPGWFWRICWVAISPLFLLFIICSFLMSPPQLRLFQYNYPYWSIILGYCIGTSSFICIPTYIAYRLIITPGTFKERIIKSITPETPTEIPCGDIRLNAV
Assay [4] deals with T3, SERT WT (Homo sapiens, UniProt P31645). Put plainly: [3H]5-HT saturation uptake in the presence of a fixed concentration of vortioxetine (competitive inhibition). Also on record: expressed in transfected cells; host or cells: HEK293T. The assay is classed as cell-based. As to conditions: control 4.21 ± 0.45.
T3 sequence (P31645 whole entry): as above
Assay [5] has as its target T3, SERT WT. In words: [3H]5-HT uptake assay (kinetics and uptake inhibition) in HEK293T cells.
Assay [6] deals with T1, hSERT Y95azF. The description is as above.
For a further assay, the target named is hSERT I168azF (Homo sapiens, UniProt P31645). The description is as above.
hSERT I168azF, sequence (P31645 whole entry): as above
The target in another assay is hSERT Y175azF (Homo sapiens, UniProt P31645). The description is as above. The note with it: [3H]5-HT uptake inhibition, Y175azF (S1 mutant); mean ± s.e.m.
hSERT Y175azF, sequence (P31645 whole entry): as above
A further assay has as its target hSERT F335azF (Homo sapiens, UniProt P31645). Described as above. The note with it: [3H]5-HT uptake inhibition, F335azF (S1 mutant); mean ± s.e.m.
In assay [7] the target is T4, hSERT F341azF (Homo sapiens, UniProt P31645). Described as above. As to conditions: [3H]5-HT uptake inhibition, F341azF (S1 mutant); mean ± s.e.m.
T4 sequence (P31645 whole entry): as above
A further assay addresses hSERT W103azF (Homo sapiens, UniProt P31645). Described as above. The note with it: [3H]5-HT uptake inhibition, W103azF (S2 mutant); mean ± s.e.m.
In a further assay the target is hSERT Y107azF (Homo sapiens, UniProt P31645). The assay is described as above.
hSERT Y107azF, sequence (P31645 whole entry): as above
Another assay concerns the target hSERT W182azF (Homo sapiens, UniProt P31645). The description is as above. The note with it: [3H]5-HT uptake inhibition, W182azF (S2 mutant); mean ± s.e.m.
A further assay has as its target hSERT Y487azF (Homo sapiens, UniProt P31645). Described as above. As to conditions: [3H]5-HT uptake inhibition, Y487azF (S2 mutant); mean ± s.e.m.
A further assay deals with hSERT K490azF (Homo sapiens, UniProt P31645). Described as above. The note with it: [3H]5-HT uptake inhibition, K490azF (S2 mutant); mean ± s.e.m.
Assay [8] deals with T2, WT hSERT. In words: Ultraviolet-induced photocrosslinking of [3H]labelled drug in HEK293T cells. As to conditions: 100 nM [3H]drug, 2 h 4 °C, UV 15 min.
Assay [9] addresses T4, hSERT F341azF. The description is as above.

T1 sequence (P31645 whole entry): as above
hSERT Y487azF, sequence (P31645 whole entry): as above

Consider `CN(C)CCCN1c2ccccc2CCc2ccccc21` [imipramine], for which, in [1], the “ultraviolet-induced crosslinking (radioactivity signal vs non-UV control)” value is on record as “did not crosslink”.

Regarding `Cc1ccc(Sc2ccccc2N2CCNCC2)c(C)c1` [vortioxetine], the “ultraviolet-induced crosslinking (radioactivity signal vs non-UV control)” value is “no signal was detected” on hSERT Y95azF [2]; “significant ultraviolet-dependent radioactivity signal was detected” at hSERT F341azF [9] (100 nM [3H]drug, 2 h 4 °C, UV 15 min, 50–100 kDa segment); “indistinguishable” in [1]. The dissociation constant Kd at WT hSERT [3] (WT hSERT C-terminally fused to 1D4 tag, mean±s.e.m.) worked out at 6.3 ± 0.7 nM; on WT hSERT [3] (WT hSERT without 1D4 tag), 6.1 ± 1.1 nM. In addition, the results for the “Vmax of 5-HT uptake in presence of inhibitor” value on SERT WT [4] (0.75 µM vortioxetine) and at SERT WT [4] (1 µM vortioxetine) were 4.19 ± 0.50 pmol min-1 per well and 4.03 ± 0.36 pmol min-1 per well, respectively. The inhibitory constant (Ki) is 202 ± 19 nM at SERT WT [5]; 1240 ± 125 nM at hSERT Y95azF [6] ([3H]5-HT uptake inhibition, Y95azF (S1 mutant), mean ± s.e.m.); 19 ± 3 nM at hSERT I168azF ([3H]5-HT uptake inhibition, I168azF (S1 mutant), mean ± s.e.m.); 53 ± 6 nM at hSERT Y175azF; 54 ± 9 nM at hSERT F335azF; 43 ± 5 nM on hSERT F341azF [7]. Further, the inhibition constant Ki on hSERT W103azF came to 149 ± 12 nM; on hSERT Y107azF ([3H]5-HT uptake inhibition, Y107azF (S2 mutant), mean ± s.e.m.), 38 ± 9 nM; on hSERT W182azF it was 74 ± 9 nM; on hSERT Y487azF it was 96 ± 16 nM; at hSERT K490azF it was 56 ± 20 nM. Further, the “decrease in potency relative to WT hSERT” value at hSERT Y95azF [6] (Y95azF vs WT, Ki in [3H]5-HT uptake inhibition) was 6 fold. The “increase in potency (more sensitive) relative to WT hSERT” value amounted to 10 fold on hSERT I168azF (I168azF vs WT, Ki in [3H]5-HT uptake inhibition) and 5 fold on hSERT Y107azF (Y107azF vs WT, Ki in [3H]5-HT uptake inhibition). Moreover, the “ultraviolet-induced crosslinking (radioactivity signal)” value on WT hSERT [8] is listed as “no radioactivity signal was observed”. Moreover, the “displacement of crosslinking radioactivity signal by unlabelled inhibitor” value on hSERT F341azF [9] (100 μM unlabelled inhibitor added before ultraviolet exposure) is “full displacement”.

What is called Kd is the concentration at which binding is half-saturated. A higher Kd goes with lower affinity. The Ki is a measure of affinity in units of concentration, obtained from inhibition or displacement. High values mean a looser hold on the target, low ones a stronger hold on the target.
